Measured values published in patent US7183260B2, “C-terminal modified oxamyl dipeptides as inhibitors of the ICE/ced-3 family of cysteine proteases” (Idun Pharmaceuticals, Inc., priority 1998, dated 2007).
Where two headings read alike, the source gives them in different places.

Experiments:
Format in all cases: biochemical
CPP32 = molecular target: T1, CPP32 (Homo sapiens, UniProt P42574); assay: Dissociation constant Ki and irreversible rate constant k3 for irreversible inhibitors (CPP32)
T1 sequence (P42574 29-175 limits assumed): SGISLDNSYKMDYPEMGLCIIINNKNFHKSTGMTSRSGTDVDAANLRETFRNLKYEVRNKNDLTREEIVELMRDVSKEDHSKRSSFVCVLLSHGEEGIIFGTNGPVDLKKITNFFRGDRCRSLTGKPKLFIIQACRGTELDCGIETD
T1 sequence (P42574 176-277 limits assumed): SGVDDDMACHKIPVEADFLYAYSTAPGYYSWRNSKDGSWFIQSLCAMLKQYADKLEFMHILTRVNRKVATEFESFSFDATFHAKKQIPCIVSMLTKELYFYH

MCH-5 = MCH-5 (Homo sapiens, UniProt Q14790); assay: Dissociation constant Ki and irreversible rate constant k3 for irreversible inhibitors (Mch5)
mICE = molecular target: T2, mICE (Mus musculus, UniProt P29452); assay: Dissociation constant Ki and irreversible rate constant k3 for irreversible inhibitors (ICE)
T2 sequence (P29452 123-296 limits assumed): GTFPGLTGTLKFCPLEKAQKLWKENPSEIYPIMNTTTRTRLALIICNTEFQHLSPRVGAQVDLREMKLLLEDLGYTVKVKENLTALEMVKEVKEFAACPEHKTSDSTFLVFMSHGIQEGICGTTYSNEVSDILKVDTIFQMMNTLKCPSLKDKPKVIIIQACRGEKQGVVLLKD
T2 sequence (P29452 315-402 limits assumed): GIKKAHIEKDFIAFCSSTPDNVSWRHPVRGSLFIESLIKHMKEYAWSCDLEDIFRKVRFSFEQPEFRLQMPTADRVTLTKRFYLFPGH

MCH-2 = molecular target: T3, MCH-2 (Homo sapiens, UniProt P55212); assay: Dissociation constant Ki and irreversible rate constant k3 for irreversible inhibitors (Mch2)
T3 sequence (P55212 24-179 limits assumed): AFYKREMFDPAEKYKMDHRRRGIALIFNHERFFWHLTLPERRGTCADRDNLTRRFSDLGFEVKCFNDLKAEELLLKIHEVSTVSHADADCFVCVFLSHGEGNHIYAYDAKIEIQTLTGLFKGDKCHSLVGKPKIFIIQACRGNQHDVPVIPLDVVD
T3 sequence (P55212 194-293 limits assumed): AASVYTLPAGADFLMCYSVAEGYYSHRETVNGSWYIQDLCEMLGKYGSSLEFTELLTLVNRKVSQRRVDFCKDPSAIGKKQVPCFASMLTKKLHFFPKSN

[1] = continuous assay 60 min, reaction initiated by adding enzyme to substrate-inhibitor mixture

MCH-5, sequence (Q14790 217-374 limits assumed, species assumed): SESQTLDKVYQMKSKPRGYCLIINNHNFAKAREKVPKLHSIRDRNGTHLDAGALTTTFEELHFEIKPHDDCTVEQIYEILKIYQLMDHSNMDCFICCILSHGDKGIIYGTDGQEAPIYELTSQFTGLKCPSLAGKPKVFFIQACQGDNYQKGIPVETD
MCH-5, sequence (Q14790 385-479 limits assumed, species assumed): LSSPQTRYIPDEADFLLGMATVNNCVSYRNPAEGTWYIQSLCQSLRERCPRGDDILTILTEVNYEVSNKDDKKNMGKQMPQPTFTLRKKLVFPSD

| Structure (SMILES) | CPP32 k3/Ki (CPP32; [1]) | Ki (CPP32; [1]) [nM] | Ki (MCH-5; [1]) [nM] | MCH-5 k3/Ki (MCH-5; [1]) | Ki (mICE; [1]) [nM] | mICE k3/Ki (mICE; [1]) | Ki (MCH-2; [1]) [nM] | MCH-2 k3/Ki (MCH-2; [1]) | CPP32 k3/Ki (CPP32) | Ki (CPP32) [nM] | Ki (MCH-5) [nM] | MCH-5 k3/Ki (MCH-5) | Ki (mICE) [nM] | mICE k3/Ki (mICE) | Ki (MCH-2) [nM] | MCH-2 k3/Ki (MCH-2) |
| --- | --- | --- | --- | --- | --- | --- | --- | --- | --- | --- | --- | --- | --- | --- | --- | --- |
| C[C@H](NC(=O)C(=O)Nc1ccccc1F)C(=O)N[C@@H](CC(=O)O)C(=O)COC(=O)c1c(Cl)cccc1Cl [Example 39] | 68,900 moles^−1 seconds^−1 | 202 | 40 | 155,000 moles^−1 seconds^−1 | 116 | 172,000 moles^−1 seconds^−1 | 23 | 129,000 moles^−1 seconds^−1 |  |  |  |  |  |  |  |  |
| C[C@H](NC(=O)C(=O)Nc1cc(C(C)(C)C)ccc1C(C)(C)C)C(=O)N[C@@H](CC(=O)O)C(=O)COc1c(F)c(F)cc(F)c1F [Example 40] | 221,000 moles^−1 seconds^−1 | 63 | 10 | 248,000 moles^−1 seconds^−1 | 45 | 195,000 moles^−1 seconds^−1 | 15 | 192,000 moles^−1 seconds^−1 |  |  |  |  |  |  |  |  |
| C[C@H](NC(=O)C(=O)Nc1ccccc1Cl)C(=O)N[C@@H](CC(=O)O)C(=O)COP(=O)(c1ccccc1)c1ccccc1 [Example 41] | 162,000 moles^−1 seconds^−1 | 35 | 27 | 179,000 moles^−1 seconds^−1 | 140 | 103,000 moles^−1 seconds^−1 | 11 | 247,000 moles^−1 seconds^−1 |  |  |  |  |  |  |  |  |
| C[C@H](NC(=O)C(=O)Nc1ccccc1Cl)C(=O)N[C@@H](CC(=O)O)C(=O)COC(=O)c1c(Cl)cccc1Cl [Example 42] | 842,000 moles^−1 seconds^−1 | 21 | 4.6 | 1,630,000 moles^−1 seconds^−1 | 7 | 1,940,000 moles^−1 seconds^−1 | 7 | 745,000 moles^−1 seconds^−1 |  |  |  |  |  |  |  |  |
| C[C@H](NC(=O)C(=O)Nc1ccc(F)cc1)C(=O)N[C@@H](CC(=O)O)C(=O)COP(=O)(c1ccccc1)c1ccccc1 [Example 43] | 268,000 moles^−1 seconds^−1 | 52 | 3.6 | 2,300,000 moles^−1 seconds^−1 | 13 | 956,000 moles^−1 seconds^−1 | 9 | 424,000 moles^−1 seconds^−1 |  |  |  |  |  |  |  |  |
| C[C@H](NC(=O)C(=O)Nc1ccc(F)cc1)C(=O)N[C@@H](CC(=O)O)C(=O)COC(=O)c1c(Cl)cccc1Cl [Example 44] | 22,700 moles^−1 seconds^−1 | 1280 | 462 | 18,700 moles^−1 seconds^−1 | 1450 | 11,700 moles^−1 seconds^−1 | 142 | 18,600 moles^−1 seconds^−1 |  |  |  |  |  |  |  |  |
| C[C@H](NC(=O)C(=O)Nc1cc(C(F)(F)F)ccc1N1CCOCC1)C(=O)N[C@@H](CC(=O)O)C(=O)COP(=O)(c1ccccc1)c1ccccc1 [Example 45] | 100,000 moles^−1 seconds^−1 | 112 | 8 | 441,000 moles^−1 seconds^−1 | 19 | 369,000 moles^−1 seconds^−1 | 19 | 98,500 moles^−1 seconds^−1 |  |  |  |  |  |  |  |  |
| C[C@H](NC(=O)C(=O)Nc1cc(C(F)(F)F)ccc1N1CCCC1)C(=O)N[C@@H](CC(=O)O)C(=O)COP(=O)(c1ccccc1)c1ccccc1 [Example 46] | 78,600 moles^−1 seconds^−1 | 52 | 4.4 | 933,000 moles^−1 seconds^−1 | 5.3 | 1,503,000 moles^−1 seconds^−1 | 7.3 | 202,000 moles^−1 seconds^−1 |  |  |  |  |  |  |  |  |
| C[C@H](NC(=O)C(=O)Nc1ccccc1C(C)(C)C)C(=O)N[C@@H](CC(=O)O)C(=O)COP(=O)(c1ccccc1)c1ccccc1 [Example 47] | 395,000 moles^−1 seconds^−1 | 24 | 8.7 | 589,000 moles^−1 seconds^−1 | 14 | 625,000 moles^−1 seconds^−1 | 11 | 484,000 moles^−1 seconds^−1 |  |  |  |  |  |  |  |  |
| C[C@H](NC(=O)C(=O)Nc1cccc2c1CCCC2)C(=O)N[C@@H](CC(=O)O)C(=O)COP(=O)(c1ccccc1)c1ccccc1 [Example 48] | 139,000 moles^−1 seconds^−1 | 69 | 4.1 | 1,150,000 moles^−1 seconds^−1 | 11 | 905,000 moles^−1 seconds^−1 | 22 | 132,000 moles^−1 seconds^−1 |  |  |  |  |  |  |  |  |
| C[C@H](NC(=O)C(=O)Nc1cccc2c1CCCC2)C(=O)N[C@@H](CC(=O)O)C(=O)COC(=O)c1c(Cl)cccc1Cl [Example 49] | 260,000 moles^−1 seconds^−1 | 43 | 4 | 1,920,000 moles^−1 seconds^−1 | 1.4 | 17,600,000 moles^−1 seconds^−1 | 10 | 264,000 moles^−1 seconds^−1 |  |  |  |  |  |  |  |  |
| C[C@H](NC(=O)C(=O)Nc1cccc2c1CCCC2)C(=O)N[C@@H](CC(=O)O)C(=O)COc1c(F)c(F)cc(F)c1F [Example 50] | 118,000 moles^−1 seconds^−1 | 129 | 74 | 46,200 moles^−1 seconds^−1 | 640 | 22,000 moles^−1 seconds^−1 | 72 | 64,100 moles^−1 seconds^−1 |  |  |  |  |  |  |  |  |
| C[C@H](NC(=O)C(=O)NCc1ccccc1)C(=O)N[C@@H](CC(=O)O)C(=O)COc1c(F)c(F)cc(F)c1F [Example 51] | 54,300 moles^−1 seconds^−1 | 370 | 83 | 23,100 moles^−1 seconds^−1 | 1010 | 13,900 moles^−1 seconds^−1 | 70 | 42,800 moles^−1 seconds^−1 |  |  |  |  |  |  |  |  |
| C[C@H](NC(=O)C(=O)NCc1ccccc1)C(=O)N[C@@H](CC(=O)O)C(=O)COC(=O)c1c(Cl)cccc1Cl [Example 52] | 600,000 moles^−1 seconds^−1 | 29 | 62 | 203,000 moles^−1 seconds^−1 | 340 | 59,100 moles^−1 seconds^−1 | 20 | 244,000 moles^−1 seconds^−1 |  |  |  |  |  |  |  |  |
| C[C@H](NC(=O)C(=O)NC12CC3CC(CC(C3)C1)C2)C(=O)N[C@@H](CC(=O)O)C(=O)COP(=O)(c1ccccc1)c1ccccc1 [Example 53] |  |  |  |  |  |  |  |  | 149,000 moles^−1 seconds^−1 | 134 | 77 | 50,400 moles^−1 seconds^−1 | 462 | 27,600 moles^−1 seconds^−1 | 42 | 124,000 moles^−1 seconds^−1 |
| C[C@H](NC(=O)C(=O)NC12CC3CC(CC(C3)C1)C2)C(=O)N[C@@H](CC(=O)O)C(=O)COC(=O)c1c(Cl)cccc1Cl [Example 54] |  |  |  |  |  |  |  |  | 20,500 moles^−1 seconds^−1 | 409 | 80 | 18,700 moles^−1 seconds^−1 | 348 | 46,000 moles^−1 seconds^−1 | 120 | 21,100 moles^−1 seconds^−1 |
| C[C@H](NC(=O)C(=O)NC1CCCCC1)C(=O)N[C@@H](CC(=O)O)C(=O)COC(=O)c1c(Cl)cccc1Cl [Example 55] | 1,174,000 moles^−1 seconds^−1 | 13 | 2.6 | 2,140,000 moles^−1 seconds^−1 | 6.1 | 2,020,000 moles^−1 seconds^−1 | 6.3 | 655,000 moles^−1 seconds^−1 |  |  |  |  |  |  |  |  |
| C[C@H](NC(=O)C(=O)NC1CCCCC1)C(=O)N[C@@H](CC(=O)O)C(=O)COP(=O)(c1ccccc1)c1ccccc1 [Example 56] | 137,000 moles^−1 seconds^−1 | 96 | 2.5 | 1,790,000 moles^−1 seconds^−1 | 5.3 | 2,032,000 moles^−1 seconds^−1 | 25 | 97,500 moles^−1 seconds^−1 |  |  |  |  |  |  |  |  |
| C[C@H](NC(=O)C(=O)Nc1ccccc1Cl)C(=O)N[C@@H](CC(=O)O)C(=O)COP(=O)(c1ccccc1)c1ccccc1 [Example 57] | 564,000 moles^−1 seconds^−1 | 44 | 2.1 | 2,330,000 moles^−1 seconds^−1 | 5.3 | 1,980,000 moles^−1 seconds^−1 | 13 | 373,000 moles^−1 seconds^−1 |  |  |  |  |  |  |  |  |
| C[C@H](NC(=O)C(=O)Nc1ccccc1Cl)C(=O)N[C@@H](CC(=O)O)C(=O)COC(=O)c1c(Cl)cccc1Cl [Example 58] | 323,000 moles^−1 seconds^−1 | 43 | 7.1 | 396,000 moles^−1 seconds^−1 | 54 | 278,000 moles^−1 seconds^−1 | 18 | 281,000 moles^−1 seconds^−1 |  |  |  |  |  |  |  |  |
